Measurements reported in patent US12109176B1, “Effect of glycerol on biofilm forming bacteria and fungi that changes the microbes sensitivity to pro and anti-biofilm non-toxic, non-bonded plasma amino acids and amino acid derivatives” (priority 2023, dated 2024).
“Also recorded” adds a separate entry of the source.

How the values were obtained:
[1] = tested on: fungal biofilm (C. albicans); assay: Fungal biofilm disruption assay; assay type: cell-based, Candida albicans
Protocol: (§1) Two types of biofilm assays were performed: an inhibition assay and a disruption assay. The inhibition assay assesses the compound's ability to prevent biofilm development, while the disruption assay assesses the compound's ability to break up an existing mature biofilm.
(§2) All bacterial biofilm solutions were prepared in Tryptic Soy Broth (TSB), supplemented with 1% glucose (henceforth referred to as TSB-G). All subsequent procedures were performed in a manner that maintained sterility. A solution of each amino acid or an amino acid derivative to be tested was prepared in weight to volume concentrations ranging from 0.1-5.0%. Amino acids and amino acid derivatives were also tested in combinations. Compound solutions were homogenized with gentle agitation in the dark (4° C., 24 hours) before use.
(§3) 32 Amino acids and 2 amino acid derivatives of the amino acid serine that occur freely in human blood were tested. […] 31 of the 32 amino acids that were tested were the L-Isomers. Glycine has no stereoisomers. The 2 amino acid derivatives, ethanolamine and phosphoethanolamine were also tested. All biofilm assays were performed using 384-well non-tissue culture-treated polystyrene plates. The fungal species tested are as follows: Candida albicans, Candida guilliermondii, Candida parapsilosis, Candida glabrata, Candida tropicalis and Candida dubliniensis. The bacterial species tested are as follows: Staphylococci (standard wild type and methicillin-resistant strain USA300), Escherichia coli, Pseudomonas aeruginosa and Staphylococcus epidermidis.
(§4) Fungal strains were streaked on Yeast Peptone Dextrose (YPD) agar plates and incubated at 30° C. for 48 hours. A single colony from each strain to be tested was inoculated into YPD broth and grown for 12 hours at 30° C., shaking at 225 rpm. […] The cells were allowed to adhere to the plate for 90 minutes at 37° C. with shaking (350 rpm). […] The plate was further incubated for 24 hours at 37° C. with shaking (350 rpm). Media was carefully aspirated and the biofilm was measured by optical density at 600 nm. […] The cells were allowed to adhere to the plate for 90 minutes at 37° C. with shaking (350 rpm). […] The plate was further incubated for 24 hours at 37° C. with shaking (350 rpm). […] The plate was further incubated for 24 hours at 37° C. with shaking (350 rpm). Media was carefully aspirated, and the biofilm was measured by optical density at 600 nm.

[2] = tested on: bacterial (S. aureus) biofilm; assay: Bacterial biofilm disruption assay; assay type: cell-based, Staphylococcus aureus
Protocol: as §1, §2, §3
(§5) Bacterial strains were streaked on Blood Agar plates (5% sheep blood in Tryptic Soy Broth) and incubated at 37° C. for 24 hours. A single colony from each strain to be tested was inoculated in a TSB broth and grown for 12 hours, at 37° C. with shaking (225 rpm). For the bacterial biofilm inhibition assays, 1 μL of saturated overnight cell culture was added to either 80 μL of TSB-G, or TSB-G supplemented with the amino acid compound solution to be tested, in a 384-well plate. The cells were allowed to adhere to the plate for 60 minutes at 37° C. without shaking. The media was carefully aspirated and 80 μL of TSB-G, or TSB-G supplemented with the amino acid compound solution was added to the plate. The plate was further incubated for 24 hours at 37° C. without shaking. Media was carefully aspirated and the biofilm was measured by optical density at 600 nm. Eight or twelve replicates were performed for each tested condition and the reported values are normalized to the control (TSB-G media only). For the bacterial biofilm disruption assays, 80 µL of TSB-G was added to the plate, along with 1 μL of overnight cell culture. The cells were allowed to adhere to the plate for 60 minutes at 37° C. with no shaking. The media was carefully aspirated and 80 μL of TSB-G was added to the plate. The plate was further incubated for 24 hours at 37° C. with no shaking. Media was carefully aspirated from the mature biofilm and 80 μL of TSB-G, or TSB-G supplemented with the amino acid to be tested, was gently added to the plate. The plate was further incubated for 24 hours at 37° C. without shaking. Media was aspirated and the biofilm was measured by optical density at 600 nm. Twelve replicates were performed for each tested condition and the reported values are normalized to the control (TSB-G media only).

bacterial biofilm = assay: In vitro testing on bacterial biofilm (inhibition and/or disruption); assay type: cell-based
Protocol: as §1, §2, §3, §5

fungal biofilm = assay: In vitro testing on fungal biofilm (inhibition and/or disruption); assay type: cell-based
Protocol: as §1, §2, §3, §4

[3] = tested on: fungal biofilm (C. albicans); assay: Fungal biofilm inhibition assay; assay type: cell-based, Candida albicans
Protocol: as §1, §2, §3, §4

[4] = tested on: bacterial (S. aureus) biofilm and fungal biofilm (C. albicans); assay: Biofilm inhibition assay, bacterial and fungal taken together; assay type: cell-based; details: symbol marks the assay
Protocol: as §1, §2, §3, §4
as §5, with “plate.” for “plate. The plate was further incubated for 24 hours at 37° C. without shaking. Media was aspirated and the biofilm was measured by optical density at 600 nm. Twelve replicates were performed for each tested condition and the reported values are normalized to the control (TSB-G media only).”

[5] = tested on: bacterial (S. aureus) biofilm; assay: Bacterial biofilm inhibition assay; assay type: cell-based, Staphylococcus aureus
Protocol: as §1, §2, §3, §5

[6] = Table E, in the absence of an infusion of glycerol
[7] = Table F, in the presence of a sufficient concentration of glycerol
[8] = in the presence of a therapeutic concentration of glycerol

## CC(C)[C@H](N)C(=O)O [Valine, L-valine]
[1]; [6]
  Promote F Biofilm (dots: Disruption Biofilm Assay): ● (Single dot [ie. ●] signifies little effect on the Disruption Biofilm Assay (from about 10 to less than 30%))
[2]; Table D, 0.1 to 5.0%
  Reduce or Inhibit B Biofilm (dots: Disruption Biofilm Assay): ● (Single dot [ie. ●] signifies little effect on the Disruption Biofilm Assay (from about 10 to less than 30%))
[2]; [7]
  Reduce or Inhibit B Biofilm (dots: Disruption Biofilm Assay): ● (Single dot [ie. ●] signifies little effect on the Disruption Biofilm Assay (from about 10 to less than 30%))
Bacterial biofilm; [8]
  effect on bacterial biofilm (in words): anti-bacterial biofilm effect
Bacterial biofilm; in the presence of a therapeutic concentration of glycerol, listed as valine
  effect on bacterial biofilm (in words): anti-bacterial biofilm effect became dominant
Bacterial biofilm; in vitro testing
  effect on bacterial biofilm (in words): anti-bacterial biofilm effect
Fungal biofilm; [8]
  effect on fungal biofilm (in words): lost its pro-fungal biofilm effect
Fungal biofilm; in vitro testing
  effect on fungal biofilm (in words): supported fungal biofilm formation; also recorded: pro-fungal biofilm effect; also recorded: promoted fungal biofilm formation
Fungal biofilm; in vitro testing, listed as valine
  effect on fungal biofilm (in words): supported the formation of biofilm made by biofilm-forming fungi

## Cn1cncc1C[C@H](N)C(=O)O [3-Methylhistidine, 3-methyl-L-histidine]
[3]; Table D, 0.1 to 5.0%
  Promote F Biofilm (squares: Inhibition Biofilm Assay): ▪ (Single square [ie. ▪] signifies little effect on the Inhibition Biofilm Assay (from about 10 to less than 30%))
[3]; [6]
  Promote F Biofilm (squares: Inhibition Biofilm Assay): ▪ (Single square [ie. ▪] signifies little effect on the Inhibition Biofilm Assay (from about 10 to less than 30%))
[1]; Table D, 0.1 to 5.0%
  Promote F Biofilm (dots: Disruption Biofilm Assay): ● (Single dot [ie. ●] signifies little effect on the Disruption Biofilm Assay (from about 10 to less than 30%))
[1]; [6]
  Promote F Biofilm (dots: Disruption Biofilm Assay): ● (Single dot [ie. ●] signifies little effect on the Disruption Biofilm Assay (from about 10 to less than 30%))
[2]; Table D, 0.1 to 5.0%
  Reduce or Inhibit B Biofilm (dots: Disruption Biofilm Assay): ● (Single dot [ie. ●] signifies little effect on the Disruption Biofilm Assay (from about 10 to less than 30%))
[2]; [7]
  Reduce or Inhibit B Biofilm (dots: Disruption Biofilm Assay): ● (Single dot [ie. ●] signifies little effect on the Disruption Biofilm Assay (from about 10 to less than 30%))
Bacterial biofilm; in vitro testing
  effect on bacterial biofilm (in words): antibacterial biofilm effect
Fungal biofilm; in vitro testing
  effect on fungal biofilm (in words): promoted fungal biofilm formation

## N[C@@H](COP(=O)(O)O)C(=O)O [Phosphoserine, O-phospho-L-serine]
[1]; Table D, 0.1 to 5.0%
  Reduce or Inhibit F Biofilm (dots: Disruption Biofilm Assay): ● (Single dot [ie. ●] signifies little effect on the Disruption Biofilm Assay (from about 10 to less than 30%))
[1]; [7]
  Reduce or Inhibit F Biofilm (dots: Disruption Biofilm Assay): ● (Single dot [ie. ●] signifies little effect on the Disruption Biofilm Assay (from about 10 to less than 30%))
[2]; Table D, 0.1 to 5.0%
  Reduce or Inhibit B Biofilm (dots: Disruption Biofilm Assay): ● (Single dot [ie. ●] signifies little effect on the Disruption Biofilm Assay (from about 10 to less than 30%))
[2]; [7]
  Reduce or Inhibit B Biofilm (dots: Disruption Biofilm Assay): ● (Single dot [ie. ●] signifies little effect on the Disruption Biofilm Assay (from about 10 to less than 30%))
[4]; Table D, Neutral = no effect on the biofilm
  Neutral (square: Inhibition Biofilm Assay): ▪ (Single square [ie. ▪] signifies little effect on the Inhibition Biofilm Assay (from about 10 to less than 30%))
[4]; [6]
  Neutral (square: Inhibition Biofilm Assay): ▪ (Single square [ie. ▪] signifies little effect on the Inhibition Biofilm Assay (from about 10 to less than 30%))
[4]; [7]
  Neutral (square: Inhibition Biofilm Assay): ▪ (Single square [ie. ▪] signifies little effect on the Inhibition Biofilm Assay (from about 10 to less than 30%))
Bacterial biofilm; in vitro testing
  effect on bacterial biofilm (in words): antibacterial biofilm effect
Fungal biofilm; in vitro testing
  effect on fungal biofilm (in words): antifungal biofilm effects

## O=C(O)[C@@H]1C[C@@H](O)CN1 [Hydroxyproline, Trans-4-hydroxy-L-proline]
[3]; Table D, 0.1 to 5.0%
  Reduce or Inhibit F Biofilm (squares: Inhibition Biofilm Assay): ▪ (Single square [ie. ▪] signifies little effect on the Inhibition Biofilm Assay (from about 10 to less than 30%))
[3]; [7]
  Reduce or Inhibit F Biofilm (squares: Inhibition Biofilm Assay): ▪ (Single square [ie. ▪] signifies little effect on the Inhibition Biofilm Assay (from about 10 to less than 30%))
[5]; Table D, 0.1 to 5.0%
  Reduce or Inhibit B Biofilm (squares: Inhibition Biofilm Assay): ▪ (Single square [ie. ▪] signifies little effect on the Inhibition Biofilm Assay (from about 10 to less than 30%))
[5]; [7]
  Reduce or Inhibit B Biofilm (squares: Inhibition Biofilm Assay): ▪ (Single square [ie. ▪] signifies little effect on the Inhibition Biofilm Assay (from about 10 to less than 30%))
[2]; Table D, 0.1 to 5.0%
  Reduce or Inhibit B Biofilm (dots: Disruption Biofilm Assay): ● (Single dot [ie. ●] signifies little effect on the Disruption Biofilm Assay (from about 10 to less than 30%))
[2]; [7]
  Reduce or Inhibit B Biofilm (dots: Disruption Biofilm Assay): ● (Single dot [ie. ●] signifies little effect on the Disruption Biofilm Assay (from about 10 to less than 30%))
Bacterial biofilm; in vitro testing
  effect on bacterial biofilm (in words): antibacterial biofilm effect
Fungal biofilm; in vitro testing
  effect on fungal biofilm (in words): antifungal biofilm effects

## NCCO [Ethanolamine, ethanolamine]
[3]; Table D, 0.1 to 5.0%
  Reduce or Inhibit F Biofilm (squares: Inhibition Biofilm Assay): ▪ (Single square [ie. ▪] signifies little effect on the Inhibition Biofilm Assay (from about 10 to less than 30%))
[3]; [7]
  Reduce or Inhibit F Biofilm (squares: Inhibition Biofilm Assay): ▪ (Single square [ie. ▪] signifies little effect on the Inhibition Biofilm Assay (from about 10 to less than 30%))
Fungal biofilm; in vitro testing
  effect on fungal biofilm (in words): antifungal biofilm effect
